The source made the active and inactive calls. No cut-off for these calls is given here.
Key:
[1] = molecular target: Dipeptidyl peptidase 4 (Sus scrofa) (UniProt P22411); assay: Inhibition of pig DPP4 at 500 uM
Dipeptidyl peptidase 4 [2] = molecular target: Dipeptidyl peptidase 4 (Sus scrofa, UniProt P22411); assay: Inhibition of pig DPP4
Dipeptidyl peptidase 4 [3] = molecular target: T1, Dipeptidyl peptidase 4 (Homo sapiens, UniProt P27487); assay: Inhibition of DPP4
Target sequence in this assay (P27487 whole entry): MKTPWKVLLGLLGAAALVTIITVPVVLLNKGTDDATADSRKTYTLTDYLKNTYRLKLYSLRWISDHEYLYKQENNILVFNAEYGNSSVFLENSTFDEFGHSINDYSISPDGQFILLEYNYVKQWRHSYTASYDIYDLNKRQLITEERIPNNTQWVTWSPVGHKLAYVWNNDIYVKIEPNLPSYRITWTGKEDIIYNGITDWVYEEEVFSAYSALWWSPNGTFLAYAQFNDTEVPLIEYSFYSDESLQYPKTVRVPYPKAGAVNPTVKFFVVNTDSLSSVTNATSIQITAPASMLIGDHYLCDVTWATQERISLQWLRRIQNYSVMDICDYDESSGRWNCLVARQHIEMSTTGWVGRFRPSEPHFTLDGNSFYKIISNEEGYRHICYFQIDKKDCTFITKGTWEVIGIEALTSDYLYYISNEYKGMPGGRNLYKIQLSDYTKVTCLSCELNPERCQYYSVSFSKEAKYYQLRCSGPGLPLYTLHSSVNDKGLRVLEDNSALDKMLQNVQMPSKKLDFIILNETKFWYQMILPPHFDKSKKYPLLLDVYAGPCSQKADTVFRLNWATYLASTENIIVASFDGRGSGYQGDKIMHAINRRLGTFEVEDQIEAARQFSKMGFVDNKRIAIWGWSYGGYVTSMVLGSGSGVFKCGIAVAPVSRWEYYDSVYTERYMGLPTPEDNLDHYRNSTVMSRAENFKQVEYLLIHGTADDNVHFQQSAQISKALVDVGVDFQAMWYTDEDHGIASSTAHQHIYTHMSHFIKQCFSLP

Dipeptidyl peptidase 4 [4] = molecular target: T1, Dipeptidyl peptidase 4; assay: Inhibition of DPP4 upto 3.3 mM
Target sequence in this assay (P27487 whole entry, looked up): as the sequence (P27487 whole entry) above

Dipeptidyl peptidase 4 [5] = molecular target: T1, Dipeptidyl peptidase 4; assay: Inhibition of DPP4 at 10 mM
Target sequence in this assay (P27487 whole entry, looked up): as the sequence (P27487 whole entry) above

Dipeptidyl peptidase 4 [6] = molecular target: T1, Dipeptidyl peptidase 4; assay: Inhibition of DPP4 at 30 mM
Target sequence in this assay (P27487 whole entry, looked up): as the sequence (P27487 whole entry) above

Chain of Dipeptidyl peptidase 4 (Sus scrofa) (P22411 whole entry, looked up): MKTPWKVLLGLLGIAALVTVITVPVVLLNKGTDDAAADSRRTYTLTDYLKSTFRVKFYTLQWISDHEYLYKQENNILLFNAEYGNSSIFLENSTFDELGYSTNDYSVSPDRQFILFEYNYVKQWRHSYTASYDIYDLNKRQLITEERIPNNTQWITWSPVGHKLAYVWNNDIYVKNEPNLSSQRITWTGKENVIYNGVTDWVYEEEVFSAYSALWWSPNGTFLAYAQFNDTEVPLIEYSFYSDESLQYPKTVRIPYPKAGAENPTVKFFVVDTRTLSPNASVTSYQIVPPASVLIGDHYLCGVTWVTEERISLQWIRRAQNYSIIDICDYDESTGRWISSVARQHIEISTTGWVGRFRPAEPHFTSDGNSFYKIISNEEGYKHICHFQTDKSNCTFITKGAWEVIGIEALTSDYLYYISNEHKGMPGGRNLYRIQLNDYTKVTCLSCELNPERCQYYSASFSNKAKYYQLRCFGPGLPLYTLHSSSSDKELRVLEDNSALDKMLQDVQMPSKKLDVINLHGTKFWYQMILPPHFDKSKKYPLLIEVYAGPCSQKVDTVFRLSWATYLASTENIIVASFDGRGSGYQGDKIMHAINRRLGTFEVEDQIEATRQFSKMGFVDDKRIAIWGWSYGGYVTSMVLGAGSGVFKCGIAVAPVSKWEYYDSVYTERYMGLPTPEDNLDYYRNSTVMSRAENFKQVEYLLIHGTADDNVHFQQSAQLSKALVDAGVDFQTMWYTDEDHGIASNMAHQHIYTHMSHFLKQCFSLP
Chain of Dipeptidyl peptidase 4 (Sus scrofa, UniProt P22411) (P22411 whole entry): as the sequence (P22411 whole entry, looked up) above

CC(C)c1c(C(=O)Nc2ccccc2)c(-c2ccccc2)c(-c2ccc(F)cc2)n1CC[C@@H](O)C[C@@H](O)CC(=O)O [ATORVASTATIN] gave an inhibition [1] of 66% and an IC50 (Dipeptidyl peptidase 4 [2]) of 175 µM.

CN(C)C(=N)N=C(N)N [METFORMIN] gave an IC50 (Dipeptidyl peptidase 4 [3]) of 29 µM.

For CN(C)C(=N)NC(=N)N, the Activity (Dipeptidyl peptidase 4 [4]) was “inactive”, the inhibition (Dipeptidyl peptidase 4 [5]) was 12.7% and the inhibition (Dipeptidyl peptidase 4 [6]) was 21.9%.

With CC(C)c1nc(N(C)S(C)(=O)=O)nc(-c2ccc(F)cc2)c1/C=C/[C@@H](O)C[C@@H](O)CC(=O)O the inhibition [1] was 4%.

With CC(C)n1c(/C=C/[C@@H](O)C[C@@H](O)CC(=O)O)c(-c2ccc(F)cc2)c2ccccc21 the inhibition [1] was 8%.

Source: ChEMBL document CHEMBL1140811, “Inhibition of dipeptidyl peptidase-IV (DPP-IV) by atorvastatin” (Bioorg Med Chem Lett, 2008)
